Experimental data as given in patent publication US7846955B2, “Salt” (AstraZeneca AB, priority 2007, dated 2010).
Structures can show the parent of a compound that is named as a salt.

Legend:
[1] = Gravimetric vapour sorption (GVS) water uptake; type: physicochemical; details: at 80% RH (±0.3%), 25° C.
Method: • XRPD—PANalytical CubiX PRO machine in Ø-Ø configuration over the scan range 2° to 40° 2Ø with 100-second exposure per 0.02° increment. The X-rays were generated by a copper long-fine focus tube operated at 45 kV and 40 mA. The wavelength of the copper X-rays was 1.5418 Å. The Data was collected on zero background holders on which ˜2 mg of the compound was placed. The holder was made from a single crystal of silicon, which had been cut along a non-diffracting plane and then polished on an optically flat finish. The X-rays incident upon this surface were negated by Bragg extinction. • DSC thermograms were measured using a TA Q1000 Differential Scanning Calorimeter, with aluminium pans and pierced lids. The sample weights varied between 0.5 to 5 mg. The procedure was carried out under a flow of nitrogen gas (50 ml/min) and the temperature studied from 25 to 300° C. at a constant rate of temperature increase of 10° C. per minute. • TGA thermograms were measured using a TA Q500 Thermogravimetric Analyser, with platinum pans. The sample weights varied between 1 and 5 mg. The procedure was carried out under a flow of nitrogen gas (60 ml/min) and the temperature studied from 25 to 200° C. at a constant rate of temperature increase of 10° C. per minute. • GVS profiles were measured using a Dynamic Vapour Sorption DVS-1 instrument. […]

[2] = Evaluation of deaggregation properties of micronised material (Fine Particle Fraction); type: physicochemical; details: across relative humidity 0-75% RH
Source text: ‘Salt Form A’ was Micronised in a 50 mm jet mill, with ejector pressure 5 bar and milling pressure 1.5-2 bar, giving (90% yield). Particle size of the micronised material as determined by Malvern Laser Diffraction with dry powder feeder was d(0.1) 0.77 μm: d(0.5), 1.45μ: d(0.9): 2.65 μm.

[3] = target: human muscarinic receptors (M3) (Homo sapiens, UniProt P20309); test: Muscarinic Receptor Radioligand Binding Assay (SPA, [3H]-NMS); details: human M3 membranes on SPA beads, 16 hours incubation, read-out: M3 binding pIC50 (converted)
Chain of human muscarinic receptors (M3) (P20309 whole entry): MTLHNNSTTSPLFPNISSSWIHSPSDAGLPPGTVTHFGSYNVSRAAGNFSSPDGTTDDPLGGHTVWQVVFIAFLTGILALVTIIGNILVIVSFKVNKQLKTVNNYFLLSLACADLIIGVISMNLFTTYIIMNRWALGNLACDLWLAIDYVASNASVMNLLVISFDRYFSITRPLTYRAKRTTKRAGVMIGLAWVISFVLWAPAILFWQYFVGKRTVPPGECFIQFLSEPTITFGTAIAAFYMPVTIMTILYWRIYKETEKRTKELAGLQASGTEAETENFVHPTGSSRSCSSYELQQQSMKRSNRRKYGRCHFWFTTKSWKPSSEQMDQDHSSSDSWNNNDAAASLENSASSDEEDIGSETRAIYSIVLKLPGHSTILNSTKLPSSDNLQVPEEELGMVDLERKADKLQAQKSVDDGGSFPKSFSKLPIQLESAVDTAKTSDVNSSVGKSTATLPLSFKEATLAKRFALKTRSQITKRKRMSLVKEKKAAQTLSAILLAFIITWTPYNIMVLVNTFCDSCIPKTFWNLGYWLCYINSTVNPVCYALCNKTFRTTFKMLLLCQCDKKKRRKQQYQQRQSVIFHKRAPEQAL
Method: The inhibitory effects of compounds of the napadisylate salt were determined by a Muscarinic Receptor Radioligand Binding Assay. Radioligand binding studies were carried out in Scintillation Proximity Assay (SPA) format utilising [3H]-N-methyl scopolamine ([3H]-NMS) and cell membranes expressing the human muscarinic receptors (M2 or M3) which were coated onto SPA beads. Coated SPA beads were incubated in 96-well plates in HEPES buffer with [3H]-NMS and M3 antagonist at various concentrations for 16 hours. Radioligand binding was then counted using a Wallac Microbeta scintillation counter.

SMILES	GVS weight increase [1]	Fine Particle Fraction (FPF) [2] [%]	IC50 [3] [nM]
C[N+](C)(CCOCc1ccc(Cl)cc1)Cc1cnc([C@](O)(c2ccccc2)C2CCCCC2)o1 [Salt Form A, [2-(4-chloro-benzyloxy)-ethyl]-[2-((R)-cyclohexyl-hydroxy-phenyl-methyl)-oxazol-5-ylmethyl]-dimethyl-ammonium hemi-naphthalene-1,5-disulfonate]	less than 0.5 % w/w	> 60	–
C[N+](C)(CCOCc1ccc(Cl)cc1)Cc1cnc([C@](O)(c2ccccc2)C2CCCCC2)o1 [[2-(4-chloro-benzyloxy)-ethyl]-[2-((R)-cyclohexyl-hydroxy-phenyl-methyl)-oxazol-5-ylmethyl]-dimethyl-ammonium]	–	–	0.158
